Results: patent US9085795B2, “Methods for screening candidate agents for modulating prorenin and renin, assays for detecting prorenin and antibodies” (MOLECULAR INNOVATIONS, INC., priority 2009, dated 2015)
Where “and” joins values, the source holds several entries; their conditions need not be identical. Identical values can stand only once. Like-named read-outs stand apart in the source and are kept apart here. No end group written: not given here. *: point of attachment. Biotin = O=C1N[C@H]2[C@H](CS[C@H]2CCCCC(=O)*)N1

Assays:
[1] = test system: monoclonal antibody 4B5-E3; details: peptides bound to avidin coated plates at 1 μg/ml, absorbance at 450 nm
Method: Cell supernatants were loaded on an IMMULON™ (Thermo Fisher Scientific Inc., Waltham, Mass.) strip plate coated with prorenin and blocked. […] Strips were then washed three times, and developed with TMB 1 (Kirkegaard & Perry Laboratories, Inc., Gaithersburg, Md.) substrate for 5 minutes; solution was quenched with 1N H2SO4. The IMMULON™ plate was read on a microtiter plate spectrophotometer with a set absorbance at 450 nm. Optical density (OD) measurements higher than 3.0 were considered positive clones.
These four peptides were bound to avidin coated plates at a concentration of 1 μg/ml and purified monoclonal 4B5-E3 binding was determined per the screening procedure described earlier.

[2] = molecular target: T1, renin (Homo sapiens, UniProt P00797); assay: Renin activity assay: cleavage of biotin-[…] by renin, detected with the antibody of the invention on avidin-coated plate; assay type: biochemical; details: Renin at 10 ug/ml, aliskiren at 10X excess molar conc.
T1 construct: Renin is produced by cleavage of the 395 amino acid zymogen prorenin
T1 sequence (P00797 67-406): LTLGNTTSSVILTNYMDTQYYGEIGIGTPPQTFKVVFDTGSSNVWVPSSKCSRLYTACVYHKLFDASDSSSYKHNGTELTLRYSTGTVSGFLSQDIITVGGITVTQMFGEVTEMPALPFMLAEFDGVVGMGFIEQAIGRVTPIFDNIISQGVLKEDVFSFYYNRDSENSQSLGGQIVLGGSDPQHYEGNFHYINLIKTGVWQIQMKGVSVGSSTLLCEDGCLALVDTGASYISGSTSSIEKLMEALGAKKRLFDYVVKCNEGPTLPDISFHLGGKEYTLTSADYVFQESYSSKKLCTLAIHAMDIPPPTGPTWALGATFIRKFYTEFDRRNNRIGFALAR
Method: In accordance with the invention, renin was preincubated in the presence and absence of aliskiren, a known renin inhibitor for approximately 2 hours at 37° C. in 50 mM HEPES, 2 mM EDTA, 1% DMA, 0.5% BSA, pH 7.0. This mixture of renin +/−aliskiren was then contacted with biotin-[…] and incubated at 37° C. for approximately eighteen hours. The reaction mixture was then added to an avidin-coated microtiter plate and allowed to adhere thereto for 30 minutes at room temperature and then washed three times with wash buffer, containing 10 mM Tris, 150 mM NaCl, 0.1% BSA and 0.05% Tween. Then 100 μl of the antibody of the invention was added to each well of the microtiter plate and incubated for 30 minutes at room temperature and again washed with wash buffer. Then 100 μl of horse radish peroxidase conjugated goat anti-mouse subclass Fc was added to each well, incubated for 30 minutes at room temperature and washed with wash buffer. Then 100 μl of TMB ONE Solution™, available from Promega Corporation of Madison, Wis., was added to all wells, incubated for five minutes at room temperature. The reaction was stopped with 50 μl 1N H2SO4 and read at 450 nm.

## Biotin-ARLGPEWS [Peptide 4.5]
[1]
  binding of peptide to monoclonal antibody 4B5-E3: binds monoclonal
[1]; listed as ARLGPEWS
  binding of peptide to monoclonal antibody 4B5-E3: bound to the monoclonal antibody

## Biotin-GVDMARLGPEWSQPMKR [Peptide 4]
[1]
  binding of peptide to monoclonal antibody 4B5-E3: Biotin-GVDMARLGPEWSQPMKR (binds monoclonal)
[1]; listed as peptide 4
  binding of peptide to monoclonal antibody 4B5-E3: positive result

## Biotin-RLGPEWSQPMKR [Peptide 4.2]
[1]
  binding of peptide to monoclonal antibody 4B5-E3: Biotin-RLGPEWSQPMKR (binds monoclonal)

## Biotin-LGPEWSQPMKR [Peptide 4.3]
[1]
  binding of peptide to monoclonal antibody 4B5-E3: Biotin-LGPEWSQPMKR (does not bind monoclonal)

## Biotin-ARLGPEWSQPMKR [Peptide 4.1]
[1]
  binding of peptide to monoclonal antibody 4B5-E3: Biotin-ARLGPEWSQPMKR (binds monoclonal)

## COCCCOc1cc(C[C@@H](C[C@H](N)[C@@H](O)C[C@H](C(=O)NCC(C)(C)C(N)=O)C(C)C)C(C)C)ccc1OC [aliskiren]
[2]
  inhibition of cleavage of the substrate peptide by renin: inhibition of cleavage of the substrate peptide by renin
[2]; preincubated approximately 2 hours at 37° C., substrate approximately eighteen hours
  signal read at 450 nM (uncleaved substrate peptide), renin + inhibitor: 3.363 and 3.481 and 3.596 and 3.824 and 3.754 and 3.497

## Biotin-ARLGPEW [Peptide 4.6]
[1]
  binding of peptide to monoclonal antibody 4B5-E3: does not bind monoclonal

## Biotin-ARLGPEWSQ [Peptide 4.4]
[1]
  binding of peptide to monoclonal antibody 4B5-E3: binds monoclonal
[1]; listed as ARLGPEWSQ
  binding of peptide to monoclonal antibody 4B5-E3: bound to the monoclonal antibody
